From ChEMBL document CHEMBL1135203, “Benzodiazepine inhibitors of the MMPs and TACE” (Bioorg Med Chem Lett, 2002)
Calls of active or inactive are those of the source. The calls are words filed in the database; no cut-off is given here.

target: Matrix metalloproteinase-9 (Homo sapiens, UniProt P14780); test: Concentration required in vitro to inhibit Matrix metalloprotease-9; conditions: not given
Sequence (P14780 whole entry): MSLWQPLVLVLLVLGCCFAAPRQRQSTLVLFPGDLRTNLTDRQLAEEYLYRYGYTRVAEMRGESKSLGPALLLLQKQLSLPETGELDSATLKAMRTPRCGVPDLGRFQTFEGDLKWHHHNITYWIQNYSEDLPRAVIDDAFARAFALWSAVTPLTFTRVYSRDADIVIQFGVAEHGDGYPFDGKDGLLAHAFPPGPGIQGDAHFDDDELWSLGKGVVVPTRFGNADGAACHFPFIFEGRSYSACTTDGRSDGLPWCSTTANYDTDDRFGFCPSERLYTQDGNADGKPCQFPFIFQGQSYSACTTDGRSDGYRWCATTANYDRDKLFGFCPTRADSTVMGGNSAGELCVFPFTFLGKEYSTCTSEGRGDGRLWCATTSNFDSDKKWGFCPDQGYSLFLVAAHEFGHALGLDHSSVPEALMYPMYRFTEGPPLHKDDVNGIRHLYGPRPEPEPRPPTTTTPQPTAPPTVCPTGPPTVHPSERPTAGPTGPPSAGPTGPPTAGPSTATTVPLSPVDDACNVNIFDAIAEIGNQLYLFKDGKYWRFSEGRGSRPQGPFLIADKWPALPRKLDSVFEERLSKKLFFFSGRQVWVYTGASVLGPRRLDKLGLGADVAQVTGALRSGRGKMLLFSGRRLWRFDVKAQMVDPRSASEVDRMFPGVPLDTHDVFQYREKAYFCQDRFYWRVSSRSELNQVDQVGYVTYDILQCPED

IC50 | Compound
2 nM | COCC(=O)N1CC(C(=O)NO)N(S(=O)(=O)c2ccc(OC)cc2)Cc2ccccc21 (stereo unspecified)
0.6 nM | COc1ccc(S(=O)(=O)N2Cc3ccccc3N(C(=O)c3ccccc3)CC2C(=O)NO)cc1 (stereo unspecified)
4 nM | COc1ccc(S(=O)(=O)N2Cc3ccccc3N(C(=O)c3cc(F)ccc3C)CC2C(=O)NO)cc1 (stereo unspecified)
2 nM | CCOc1ccc(C(=O)N2CC(C(=O)NO)N(S(=O)(=O)c3ccc(OC)cc3)Cc3ccccc32)cc1 (stereo unspecified)

The remaining lines, values behind:

Compound | IC50
COc1ccc(S(=O)(=O)N2Cc3ccccc3N(C(=O)C3CCCCC3)CC2C(=O)NO)cc1 (stereo unspecified) | 13 nM
COCC(=O)N1CC(C(=O)NO)N(S(=O)(=O)c2ccc(Oc3ccncc3)cc2)Cc2ccccc21 (stereo unspecified) | 2 nM
COc1ccc(S(=O)(=O)N2Cc3ccccc3N(S(C)(=O)=O)CC2C(=O)NO)cc1 (stereo unspecified) | 8 nM
O=C(NO)C1CN(C(=O)c2cccs2)c2ccccc2CN1S(=O)(=O)c1ccc(Oc2ccc(Cl)cc2)cc1 (stereo unspecified) | 2 nM
CC#CCOc1ccc(S(=O)(=O)N2Cc3ccccc3N(S(C)(=O)=O)CC2C(=O)NO)cc1 (stereo unspecified) | 95.5 nM
CC#CCOc1ccc(S(=O)(=O)N2Cc3ccccc3N(C(=O)C3CC3)CC2C(=O)NO)cc1 (stereo unspecified) | 33 nM

target: Disintegrin and metalloproteinase domain-containing protein 17 (Homo sapiens, UniProt P78536); test: Concentration required in vitro to inhibit TNF-alpha converting enzyme (TACE); conditions: not given
Sequence (P78536 whole entry, the tested form may be a part): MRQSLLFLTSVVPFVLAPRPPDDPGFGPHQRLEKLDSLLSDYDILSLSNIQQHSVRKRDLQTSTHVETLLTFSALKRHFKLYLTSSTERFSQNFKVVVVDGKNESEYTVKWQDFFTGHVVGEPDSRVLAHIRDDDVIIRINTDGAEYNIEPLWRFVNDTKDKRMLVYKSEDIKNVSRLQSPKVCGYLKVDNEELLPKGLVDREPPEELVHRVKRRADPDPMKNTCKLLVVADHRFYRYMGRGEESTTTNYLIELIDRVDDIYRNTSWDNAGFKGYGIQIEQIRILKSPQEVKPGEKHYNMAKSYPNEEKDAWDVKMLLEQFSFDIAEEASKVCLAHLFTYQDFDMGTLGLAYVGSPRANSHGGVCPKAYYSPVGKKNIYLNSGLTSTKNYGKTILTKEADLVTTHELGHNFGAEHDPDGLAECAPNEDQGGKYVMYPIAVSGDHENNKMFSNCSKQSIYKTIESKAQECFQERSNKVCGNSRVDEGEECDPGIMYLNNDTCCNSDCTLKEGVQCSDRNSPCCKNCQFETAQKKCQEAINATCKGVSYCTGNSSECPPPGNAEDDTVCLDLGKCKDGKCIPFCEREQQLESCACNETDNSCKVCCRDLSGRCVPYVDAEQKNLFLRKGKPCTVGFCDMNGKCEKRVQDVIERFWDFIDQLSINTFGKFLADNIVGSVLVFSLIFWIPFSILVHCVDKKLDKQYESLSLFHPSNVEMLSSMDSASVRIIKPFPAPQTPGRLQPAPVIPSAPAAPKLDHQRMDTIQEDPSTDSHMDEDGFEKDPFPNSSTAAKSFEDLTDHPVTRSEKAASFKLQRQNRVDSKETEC

Compound | IC50
COCC(=O)N1CC(C(=O)NO)N(S(=O)(=O)c2ccc(Oc3ccncc3)cc2)Cc2ccccc21 (stereo unspecified) | 157 nM
COCC(=O)N1CC(C(=O)NO)N(S(=O)(=O)c2ccc(Oc3ccc(Cl)cc3)cc2)Cc2ccccc21 (stereo unspecified) | 157 nM
O=C(NO)C1CN(C(=O)c2cccs2)c2ccccc2CN1S(=O)(=O)c1ccc(Oc2ccc(Cl)cc2)cc1 (stereo unspecified) | 254 nM
CC#CCOc1ccc(S(=O)(=O)N2Cc3ccccc3N(S(C)(=O)=O)CC2C(=O)NO)cc1 (stereo unspecified) | 20 nM
O=C(NO)C1CN(C(=O)c2ccccc2)c2ccccc2CN1S(=O)(=O)c1ccc(Oc2ccc(Cl)cc2)cc1 (stereo unspecified) | 528 nM
CC#CCOc1ccc(S(=O)(=O)N2Cc3ccccc3N(C(=O)C3CC3)CC2C(=O)NO)cc1 (stereo unspecified) | 10 nM

tested on: Rattus norvegicus; test: Dialysis activity is detected at a dose of 50 mpk after 1 hr of po administration; format: functional; design: unit not given here; conditions: not given

Compound | Activity
COCC(=O)N1CC(C(=O)NO)N(S(=O)(=O)c2ccc(OC)cc2)Cc2ccccc21 (stereo unspecified) | 1
COc1ccc(S(=O)(=O)N2Cc3ccccc3N(C(=O)C3CC3)CC2C(=O)NO)cc1 (stereo unspecified) | 0.49
COc1ccc(S(=O)(=O)N2Cc3ccccc3N(C(=O)C3CCCCC3)CC2C(=O)NO)cc1 (stereo unspecified) | 0.47
COc1ccc(S(=O)(=O)N2Cc3ccccc3N(C(C)=O)CC2C(=O)NO)cc1 (stereo unspecified) | 0.9
COCC(=O)N1CC(C(=O)NO)N(S(=O)(=O)c2ccc(Oc3ccncc3)cc2)Cc2ccccc21 (stereo unspecified) | 0.32

organism: Bos taurus; test: Inhibition of cartilage degradation by the compound was detected using bovine cartilage explant model at 1 uM; format: functional, Cartilage tissue; conditions: not given

Compound | Activity
COCC(=O)N1CC(C(=O)NO)N(S(=O)(=O)c2ccc(OC)cc2)Cc2ccccc21 (stereo unspecified) | 2.5
COc1ccc(S(=O)(=O)N2Cc3ccccc3N(C(=O)c3ccccc3)CC2C(=O)NO)cc1 (stereo unspecified) | 0.73
COc1ccc(S(=O)(=O)N(Cc2cccnc2)[C@@H](C(=O)NO)C(C)C)cc1.Cl [CGS-27023A] | 1
COc1ccc(S(=O)(=O)N2Cc3ccccc3N(C(=O)c3cccs3)CC2C(=O)NO)cc1 (stereo unspecified) | 1.2

target: Collagenase 3 (Homo sapiens, UniProt P45452); test: Concentration required in vitro to inhibit Matrix metalloprotease-13; conditions: not given

IC50 | Compound
2 nM | COCC(=O)N1CC(C(=O)NO)N(S(=O)(=O)c2ccc(OC)cc2)Cc2ccccc21 (stereo unspecified)
1 nM | COc1ccc(S(=O)(=O)N2Cc3ccccc3N(C(=O)c3cccs3)CC2C(=O)NO)cc1 (stereo unspecified)
2 nM | COc1ccc(S(=O)(=O)N2Cc3ccccc3N(C(=O)c3cc(F)ccc3C)CC2C(=O)NO)cc1 (stereo unspecified)
9.5 nM | CC#CCOc1ccc(S(=O)(=O)N2Cc3ccccc3N(C(=O)c3ccccc3)CC2C(=O)NO)cc1 (stereo unspecified)
2 nM | CCOc1ccc(C(=O)N2CC(C(=O)NO)N(S(=O)(=O)c3ccc(OC)cc3)Cc3ccccc32)cc1 (stereo unspecified)

The next lines start with the compound.

Compound | IC50
COCC(=O)N1CC(C(=O)NO)N(S(=O)(=O)c2ccc(Oc3ccncc3)cc2)Cc2ccccc21 (stereo unspecified) | 2 nM
O=C(NO)C1CN(C(=O)c2cccs2)c2ccccc2CN1S(=O)(=O)c1ccc(Oc2ccc(Cl)cc2)cc1 (stereo unspecified) | 4 nM
CC#CCOc1ccc(S(=O)(=O)N2Cc3ccccc3N(S(C)(=O)=O)CC2C(=O)NO)cc1 (stereo unspecified) | 34.6 nM
CC#CCOc1ccc(S(=O)(=O)N2Cc3ccccc3N(C(=O)C3CC3)CC2C(=O)NO)cc1 (stereo unspecified) | 29 nM

tested on: Rattus norvegicus; test: Dialysis activity is detected at a dose of 50 mpk after 2 hr of ip administration; format: functional; design: unit not given here; conditions: not given

Compound | Activity
COc1ccc(S(=O)(=O)N2Cc3ccccc3N(C(C)=O)CC2C(=O)NO)cc1 (stereo unspecified) | 1.7
COc1ccc(S(=O)(=O)N2Cc3ccccc3N(C(=O)c3ccccc3)CC2C(=O)NO)cc1 (stereo unspecified) | 1.2
COc1ccc(S(=O)(=O)N2Cc3ccccc3N(C(=O)c3cccs3)CC2C(=O)NO)cc1 (stereo unspecified) | 1.1
COc1ccc(S(=O)(=O)N2Cc3ccccc3N(C(=O)CCc3ccccc3)CC2C(=O)NO)cc1 (stereo unspecified) | 0.22

organism: Rattus norvegicus; test: Dialysis activity is detected at a dose of 50 mpk; IA denotes inactive; format: functional, organism-based; conditions: not given

Compound | IA
COCC(=O)N1CC(C(=O)NO)N(S(=O)(=O)c2ccc(Oc3ccc(Cl)cc3)cc2)Cc2ccccc21 (stereo unspecified) | inactive

organism: Bos taurus; test: Compound was tested for inhibition of cartilage degradation using bovine cartilage explant model; format: functional, Cartilage tissue; conditions: not given

Compound | Inhibition
COc1ccc(S(=O)(=O)N2Cc3ccccc3N(C(=O)c3ccccc3)CC2C(=O)NO)cc1 (stereo unspecified) | 46.3%
COc1ccc(S(=O)(=O)N(Cc2cccnc2)[C@@H](C(=O)NO)C(C)C)cc1.Cl [CGS-27023A] | 63%

tested on: THP-1; test: Compound was tested for its ability to inhibit TNF-alpha in a cellular assay using THP-1 cells at 3 uM; format: functional; conditions: Homo sapiens

Compound | inhibition at 3 µM
CC#CCOc1ccc(S(=O)(=O)N2Cc3ccccc3N(C(C)=O)CC2C(=O)NO)cc1 (stereo unspecified) | 60%
CC#CCOc1ccc(S(=O)(=O)N2Cc3ccccc3N(S(C)(=O)=O)CC2C(=O)NO)cc1 (stereo unspecified) | 44%
CC#CCOc1ccc(S(=O)(=O)N2Cc3ccccc3N(C(=O)c3ccccc3)CC2C(=O)NO)cc1 (stereo unspecified) | 25%
CC#CCOc1ccc(S(=O)(=O)N2Cc3ccccc3N(C(=O)C3CC3)CC2C(=O)NO)cc1 (stereo unspecified) | 59%

tested on: Rattus norvegicus; test: Dialysis activity is detected at a dose of 50 mpk after 1 hr of ip administration; format: functional; conditions: not given

Compound | Activity
COc1ccc(S(=O)(=O)N2Cc3ccccc3N(C(=O)C3CC3)CC2C(=O)NO)cc1 (stereo unspecified) | 0.8

target: T1, Interstitial collagenase (Homo sapiens, UniProt P03956); test: Concentration required in vitro to inhibit Matrix metalloprotease-1; conditions: not given
T1 sequence (P03956 whole entry): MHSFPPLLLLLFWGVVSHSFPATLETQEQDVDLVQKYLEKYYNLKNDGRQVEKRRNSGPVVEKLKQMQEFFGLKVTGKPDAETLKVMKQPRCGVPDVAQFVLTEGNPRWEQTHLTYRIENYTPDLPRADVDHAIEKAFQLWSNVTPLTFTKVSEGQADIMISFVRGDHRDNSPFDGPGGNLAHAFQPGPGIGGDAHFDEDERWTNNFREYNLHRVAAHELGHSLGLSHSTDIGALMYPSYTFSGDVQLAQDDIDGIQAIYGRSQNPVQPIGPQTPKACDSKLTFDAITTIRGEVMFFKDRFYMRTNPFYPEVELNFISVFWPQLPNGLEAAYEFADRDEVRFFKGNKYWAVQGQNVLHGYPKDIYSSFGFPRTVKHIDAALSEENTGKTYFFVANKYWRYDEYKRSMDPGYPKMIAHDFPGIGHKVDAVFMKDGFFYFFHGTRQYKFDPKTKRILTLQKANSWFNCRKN

Compound | IC50
COc1ccc(S(=O)(=O)N2Cc3ccccc3N(C(C)=O)CC2C(=O)NO)cc1 (stereo unspecified) | 18 nM
COCC(=O)N1CC(C(=O)NO)N(S(=O)(=O)c2ccc(Oc3ccncc3)cc2)Cc2ccccc21 (stereo unspecified) | 763 nM
COCC(=O)N1CC(C(=O)NO)N(S(=O)(=O)c2ccc(Oc3ccc(Cl)cc3)cc2)Cc2ccccc21 (stereo unspecified) | 61 nM
COc1ccc(S(=O)(=O)N2Cc3ccccc3N(C(=O)c3cccs3)CC2C(=O)NO)cc1 (stereo unspecified) | 20 nM
O=C(NO)C1CN(C(=O)c2cccs2)c2ccccc2CN1S(=O)(=O)c1ccc(Oc2ccc(Cl)cc2)cc1 (stereo unspecified) | 35 nM
CC#CCOc1ccc(S(=O)(=O)N2Cc3ccccc3N(S(C)(=O)=O)CC2C(=O)NO)cc1 (stereo unspecified) | 260 nM
CCOc1ccc(C(=O)N2CC(C(=O)NO)N(S(=O)(=O)c3ccc(OC)cc3)Cc3ccccc32)cc1 (stereo unspecified) | 24 nM
O=C(NO)C1CN(C(=O)c2ccccc2)c2ccccc2CN1S(=O)(=O)c1ccc(Oc2ccc(Cl)cc2)cc1 (stereo unspecified) | 59 nM
CC#CCOc1ccc(S(=O)(=O)N2Cc3ccccc3N(C(=O)C3CC3)CC2C(=O)NO)cc1 (stereo unspecified) | 841 nM

organism: Rattus norvegicus; test: Dialysis activity is detected at a dose of 50 mpk; format: functional; conditions: not given

Compound | Activity
COc1ccc(S(=O)(=O)N(Cc2cccnc2)[C@@H](C(=O)NO)C(C)C)cc1.Cl [CGS-27023A] | 1
